Assay results: patent publication US11084803B2, “Activators of class I histone deacetylases (HDACs) and uses thereof” (Massachusetts Institute of Technology, priority 2011, dated 2021)
“Also recorded” adds a separate entry of the source.

Assays:
[1] = test system: histone lysine residues known to be HDAC1 targets in HEK293T cells; test: Histone acetylation in HEK293T cells by Western blot; type: cell-based, Human; details: 10 μM or 50 μM, 20 h
Description: DAC compounds were added to HEK293T cells for 20 h. Vehicle was DMSO. Histones were acid-extracted and analyzed by Western blot for Ac-H3K56, Ac-H4K12, Ac-H3K14 and Ac-H2B. Histone 3 was used as the loading control.
Next, what was tested was whether a treatment of HDAC1 activators can increase HDAC1 enzymatic activity in cultured cells. Human HEK293T cells were treated with compounds at different concentrations (10 μM or 50 μM) for 20 h. Histone proteins were extracted, and Western blotting was used to analyze the acetylation of certain histone lysine residues known to be HDAC1 targets.

DIV 14 cortical neurons = test: Neuronal excitotoxicity model, MAP2 staining of dendrites; type: cell-based; details: compound 20 h; 50 μM glutamate 1 h; p<0.01 for significant
Description: The neuroprotection potential of the candidate compounds were also tested using a neuronal excitoxicity model. DIV 14 cortical neurons were treated with the compounds for 20 h, 50 μM glutamate was added to the culture 1 h before processing the samples for immunocytochemistry. […] Ginkgetin was used as a positive control.

[2] = molecular target: T1, Recombinant, full-length human HDAC1 (Homo sapiens, UniProt Q13547); test: Primary HDAC1 high-throughput screen, microfluidics-based deacetylase assay, single concentration; type: biochemical; details: for Average activation % during HTS (10 μM): substrate FAM-TSRHKacKL; for Percent activation (%) Replicate 1 / Percent activation (%) Replicate 2: high-throughput screening, 6 h; for Average activation % during HTS (10 μM) / Percent activation (%) Replicate 1 / Percent activation (%) Replicate 2: 10 μM
T1 construct: FLAG (C); purchased BPS Biosciences (San Diego, Calif.); host or cells: insect cells (Sf9)
Description: Recombinant, full-length human HDAC1 (GenBank Accession No. NM_004964) with a C-terminal FLAG tag was produced by BPS Biosciences (San Diego, Calif.) using large-scale insect cell protein expression and purification in order to support a large-scale high-throughput screen (HTS).
Compounds were tested with a reaction time of 6 h with compounds tested at a single concentration (10 μM) in duplicate. As a positive control, the biflavonoid gingketin was chosen.
Compounds were tested in duplicate at 10 μM nominal final concentration in 384-well plate format. The reference activator compound, ginkgetin (50 μM), was included in duplicates in each HTS plate as a positive control condition, 24 negative control samples (DMSO only) were included in each plate to provide for the 0% activation baseline.
Within each HTS plate, the effect of individual compounds on the enzymatic activity of HDAC1 was calculated as % change in the conversion of the peptide substrate relative to the average substrate conversion value calculated across the 24 negative control samples.

HT-22 cells [3] = test: Etoposide-induced DNA damage stress in HT-22 cells, cell viability; type: cell-based; details: 5 μM for DAC-001 and DAC-003, 10 μM for others; 3 h before 2 μM etoposide; 72 h; p<0.001
Description: (§1) HT-22 cells, a hippocampal neuron derived cell line, were used to model neurodegeneration. Two types of insults were used. […] Etoposide, a topoisomerase II inhibitor, stressed cells through DNA damage. These two types of stresses have been documented in neurodegenerative diseases.
Similarly, HT-22 cells were pre-incubated with compounds (5 μM for DAC-001 and DAC-003; 10 μM for others) for 3 h. Then, 2 μM etoposide was added to the culture medium. Cell viability was measured 72 h later (FIG. 5B).

recombinant HDAC1 = molecular target: T2, recombinant HDAC1 (Homo sapiens, UniProt Q13547); test: Secondary HDAC1 microfluidics-based assay, 8-point dose response, substrate FAM-TSRHKacKL; type: biochemical; details: for Emax: read-out: Maximum activation % during dose response (50 μM maximum); for AC50 / activation of up to (HDAC1): dose response 50 μM to 0.02 μM
T2 construct: FLAG (C); purchased BPS Biosciences (San Diego, Calif.); host or cells: insect cells (Sf9)

HT-22 cells [4] = test: Glutamate-induced oxidative stress in HT-22 cells, CellTiter-Glo viability; type: cell-based; details: compound 3 h before 2.5 mM glutamate; p<0.05 versus vehicle; 10 μM DAC-003
Description: as §1
HT-22 cells were treated with compounds for 3 h prior to the addition of 2.5 mM glutamate. Cell viability was measured by CellTiter-Glo assays (Promega) (FIG. 5A).

recombinant HDAC2 = recombinant HDAC2 (Homo sapiens, UniProt Q92769); test: Microfluidics-based deacetylase assay with HDAC2; type: biochemical; details: dose response
Description: (§2) Based upon the results of the HDAC1 activator screen performed, a total of 21 compounds (for structures, see FIGS. 6A to 6C) were initially selected as hits due to their ability to enhance the deacetylase activity of recombinant HDAC1. Those hits, designated as “DACs” (deacetylase activating compounds), were measured using a microfluidics-based assay with an acetylated peptidic substrate (FAM-TSRHKacKL) over a reaction time of 6 h. The 21 HTS hits plus two controls: ginkgetin (an activator) and TSA (trichostatin A, an inhibitor; for its structure, see FIG. 6A) were retested in an 8-point dose response ranging from 50 μM to 0.02 μM.
(§3) Microfluidics-based deacetylase assays were also performed using recombinant HDAC2, HDAC3, and HDAC8 to determine the selectivity of the compounds. Many of the confirmed compounds also activated HDAC2 isoform to a similar or even greater extent. Some compounds activated HDAC3 and inhibited the HDAC8 isoform.

recombinant HDAC3 = recombinant HDAC3 (Homo sapiens, UniProt O15379); test: Microfluidics-based deacetylase assay with HDAC3; type: biochemical; design: dose or concentration left out as unconfirmed; details: read-out: maximal effect (activation of HDAC3)
Description: as §2, §3

[5] = 8-point dose response 50 μM to 0.02 μM, 6 h

T2 sequence (Q13547 whole entry): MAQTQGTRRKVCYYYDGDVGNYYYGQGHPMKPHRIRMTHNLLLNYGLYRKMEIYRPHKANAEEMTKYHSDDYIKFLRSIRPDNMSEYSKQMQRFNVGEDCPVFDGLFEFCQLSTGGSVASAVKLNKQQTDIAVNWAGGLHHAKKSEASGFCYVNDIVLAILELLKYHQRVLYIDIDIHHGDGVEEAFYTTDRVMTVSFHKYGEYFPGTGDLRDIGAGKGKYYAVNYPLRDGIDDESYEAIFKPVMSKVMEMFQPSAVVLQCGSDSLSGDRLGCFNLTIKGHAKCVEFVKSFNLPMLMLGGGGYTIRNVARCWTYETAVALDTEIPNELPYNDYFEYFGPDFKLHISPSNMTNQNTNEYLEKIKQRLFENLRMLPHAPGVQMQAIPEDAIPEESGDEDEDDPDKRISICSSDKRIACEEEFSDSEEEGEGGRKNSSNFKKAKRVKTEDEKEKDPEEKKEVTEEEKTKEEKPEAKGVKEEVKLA
T1 sequence (Q13547 whole entry): as above
Sequence of recombinant HDAC2 (Q92769 whole entry, species assumed): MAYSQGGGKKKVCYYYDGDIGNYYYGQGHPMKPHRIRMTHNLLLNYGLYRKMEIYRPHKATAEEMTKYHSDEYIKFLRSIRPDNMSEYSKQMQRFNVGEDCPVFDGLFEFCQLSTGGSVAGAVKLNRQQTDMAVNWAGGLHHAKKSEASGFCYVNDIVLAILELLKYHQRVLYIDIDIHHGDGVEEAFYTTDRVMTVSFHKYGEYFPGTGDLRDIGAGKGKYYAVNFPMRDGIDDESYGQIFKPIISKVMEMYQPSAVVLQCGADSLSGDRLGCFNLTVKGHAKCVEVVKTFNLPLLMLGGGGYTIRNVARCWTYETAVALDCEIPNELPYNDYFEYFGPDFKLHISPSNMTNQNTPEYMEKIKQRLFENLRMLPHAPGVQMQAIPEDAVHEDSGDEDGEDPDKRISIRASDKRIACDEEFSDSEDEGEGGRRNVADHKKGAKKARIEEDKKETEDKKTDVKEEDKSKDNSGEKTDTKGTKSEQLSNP
Sequence of recombinant HDAC3 (O15379 whole entry, species assumed): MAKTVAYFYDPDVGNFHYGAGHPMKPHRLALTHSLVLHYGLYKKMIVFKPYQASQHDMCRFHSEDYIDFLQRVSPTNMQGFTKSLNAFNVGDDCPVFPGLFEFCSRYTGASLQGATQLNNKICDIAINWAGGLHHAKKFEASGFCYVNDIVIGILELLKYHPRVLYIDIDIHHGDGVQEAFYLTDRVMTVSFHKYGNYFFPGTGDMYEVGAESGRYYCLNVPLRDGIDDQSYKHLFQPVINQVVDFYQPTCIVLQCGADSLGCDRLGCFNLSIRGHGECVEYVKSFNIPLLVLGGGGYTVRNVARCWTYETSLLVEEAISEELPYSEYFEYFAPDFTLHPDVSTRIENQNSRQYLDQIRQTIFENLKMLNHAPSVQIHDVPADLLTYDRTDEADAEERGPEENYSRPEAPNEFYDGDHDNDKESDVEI
Sequence of recombinant HDAC3 (Q9Y618 395-489 partner limits assumed, species assumed): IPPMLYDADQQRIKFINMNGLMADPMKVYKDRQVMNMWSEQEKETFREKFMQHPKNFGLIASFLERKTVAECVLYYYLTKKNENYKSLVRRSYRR

Molecule: Cc1ccc(C(=O)NC(=S)Nc2ccc(-c3ccc(CO)o3)cc2)cc1 [DAC-001]
- levels of acetylated histones (Ac-H3K56, Ac-H3K14, Ac-H4K12, Ac-H2B) [1]: reduced the levels of Ac-H3K56, Ac-H3K14, Ac-H4K12 and Ac-H2B
- protection of neurons from excitotoxicity (retention of dendrites) (DIV 14 cortical neurons): significant protection
- Average activation % during HTS (10 μM) [2]: 130.5%
- conversion of peptidic substrate FAM-TSRHKacKL to FAM-TSRHKKL (microfluidic fluorescence reader trace) ([2]; FIG. 3A, 3B): increased conversion
- Percent activation (%) Replicate 1 [2]: 122.6%
- Percent activation (%) Replicate 2 [2]: 138.4%
- protection against DNA damage stress (cell viability) (HT-22 cells [3]): significantly protect cells from DSB-induced cell death; also recorded: significant protection
- Emax (recombinant HDAC1; [5]): 287%
- AC50 (recombinant HDAC1): 4.05 µM
- activation of up to (HDAC1) (recombinant HDAC1): up to 287%

Molecule: O=C(NC(=S)Nc1ccc(-c2ccc(CO)o2)cc1)c1cccs1 [DAC-002]
- levels of acetylated histones (Ac-H3K56, Ac-H3K14, Ac-H4K12, Ac-H2B) [1]: reduced the levels of Ac-H3K56, Ac-H3K14, Ac-H4K12 and Ac-H2B
- protection of neurons from excitotoxicity (retention of dendrites) (DIV 14 cortical neurons): trend of protection
- Average activation % during HTS (10 μM) [2]: 54.7%
- Percent activation (%) Replicate 1 [2]: 52.7%
- Percent activation (%) Replicate 2 [2]: 56.6%
- protection against DNA damage stress (cell viability) (HT-22 cells [3]): significantly protect cells from DSB-induced cell death; also recorded: significant protection
- Emax (recombinant HDAC1; [5]): 221%
- AC50 (recombinant HDAC1): 8.31 µM
- activation of up to (HDAC1) (recombinant HDAC1): ≤ 221%

Molecule: Cc1cccc2c1[nH]c1nc(N/N=C/c3ccc(O)c(O)c3)nnc12 [DAC-003]
- levels of acetylated histones (Ac-H3K56, Ac-H3K14, Ac-H4K12, Ac-H2B) [1]: reduced the levels of Ac-H3K56, Ac-H3K14, Ac-H4K12 and Ac-H2B
- protection from oxidative stress (cell viability) (HT-22 cells [4]): significantly protect cells from oxidative insults; also recorded: significantly protect cells from oxidative stress
- protection of neurons from excitotoxicity (retention of dendrites) (DIV 14 cortical neurons): trend of protection
- Average activation % during HTS (10 μM) [2]: 24.6%
- Percent activation (%) Replicate 1 [2]: 24.2%
- Percent activation (%) Replicate 2 [2]: 24.9%
- protection against DNA damage stress (cell viability) (HT-22 cells [3]): significantly protect cells from DSB-induced cell death; also recorded: significant protection
- Emax (recombinant HDAC1; [5]): 34%

Molecule: CCC(=O)C1(Sc2nc3ccccc3[nH]2)CC(C)(C)OC1=O (stereo not shown) [DAC-009]
- levels of acetylated histones (Ac-H3K56, Ac-H3K14, Ac-H4K12, Ac-H2B) [1]: reduced the levels of Ac-H3K56, Ac-H3K14, Ac-H4K12 and Ac-H2B
- Average activation % during HTS (10 μM) [2]: 18.7%
- Percent activation (%) Replicate 1 [2]: 15.1%
- Percent activation (%) Replicate 2 [2]: 22.2%
- protection against DNA damage stress (cell viability) (HT-22 cells [3]): significantly protect cells from DSB-induced cell death; also recorded: significant protection
- Emax (recombinant HDAC1; [5]): 12%

Molecule: COc1ccc(CNc2cc(C)ccc2C)c(OC)c1 [DAC-012]
- protection from oxidative stress (cell viability) (HT-22 cells [4]): trend of protection
- Average activation % during HTS (10 μM) [2]: 17.7%
- Percent activation (%) Replicate 1 [2]: 17.5%
- Percent activation (%) Replicate 2 [2]: 17.9%
- protection against DNA damage stress (cell viability) (HT-22 cells [3]): significantly protect cells from DSB-induced cell death; also recorded: significant protection
- Emax (recombinant HDAC1; [5]): 26%

Molecule: COc1cc(O)c2c(=O)cc(-c3ccc(OC)c(-c4c(O)cc(O)c5c(=O)cc(-c6ccc(O)cc6)oc45)c3)oc2c1 [ginkgetin, reference compound]
- AC50 (recombinant HDAC2): 28 µM
- Emax (recombinant HDAC2; read-out: maximal effect (activation of HDAC2)): 165%
- Emax (recombinant HDAC3): 20%
- Average activation % during HTS (10 μM) [2]: 25.6%
- Average effect (positive control) ([2]; ginkgetin 50 μM, 580 measurements, standard deviation: 4%): 26% activation
- Emax (recombinant HDAC1; [5]): 23%
- Emax at 10 µM (recombinant HDAC1; plateau at 10 μM, read-out: maximal effect (activation of HDAC1)): 20%

Molecule: trichostatin A [reference compound]
- Average activation % during HTS (10 μM) [2]: 0%
- Maximum activation % during dose response (50 μM maximum) (recombinant HDAC1; [5]): 0%
- effect on HDAC isoforms in dose response (recombinant HDAC1; all HDAC isoforms): dose dependent inhibition of all HDAC isoforms
